row,melting point,SMILES
1,140 to 144 °C,COc1ccc(NC(=O)Oc2ccc3c(c2)CCN3)cc1OC
2,152 to 153 °C,COc1cc(CN2CCc3cc(OC(=O)Nc4ccc(C(C)C)cc4)ccc32)ccc1N(C)C
3,132 to 136 °C,O=C(Nc1ccncc1)Oc1ccc2c(c1)CCN2Cc1ccccc1
4,62 to 66 °C,CCCN(CCC)C(=O)C1Cc2cc(OC(=O)Nc3ccc(C(C)C)cc3)ccc2N1Cc1ccccc1 (stereo not shown)
5,170 to 174 °C,CC(C)c1ccc(NC(=O)Oc2ccc3c(c2)CCN3Cc2ccc(O)c(Cl)c2)cc1
6,161 to 167 °C,O=C(Nc1ccc2ccccc2c1)Oc1ccc2c(c1)CCN2Cc1ccccc1
7,155 to 160 °C,O=C(Nc1ccc(Oc2ccccc2)cc1)Oc1ccc2c(c1)CCN2Cc1ccccc1
8,175 to 178 °C,O=C(Nc1ccc(-c2ccccc2)cc1)Oc1ccc2c(c1)CCN2Cc1ccccc1

# The next lines start with the molecule.
row,SMILES,melting point
1,CC(C)c1ccc(NC(=O)Oc2ccc3c(c2)CCN3Cc2ccc3ccccc3n2)cc1,150 to 152 °C
2,CC(C)c1ccc(NC(=O)Oc2ccc3c(c2)CCN3Cc2ccco2)cc1,168 to 171 °C
3,CNC(=O)Oc1ccc2c(c1)CCN2,109 to 112 °C
4,CC(C)c1ccc(NC(=O)Oc2ccc3c(c2)CCN3)cc1,166 to 170 °C
5,COC(=O)c1ccc(CN2CCc3cc(OC(=O)Nc4ccc(C(C)C)cc4)ccc32)cc1,149 to 153 °C
6,O=C(Nc1ccc(C2CCCCC2)cc1)Oc1ccc2c(c1)CCN2Cc1ccccc1,171 to 174 °C
7,CC(C)c1ccc(NC(=O)Oc2ccc3c(c2)CCN3Cc2cc(N(C)C)c3ccccc3c2)cc1,75 to 80 °C
8,O=C(NCC1CCCCC1)Oc1ccc2c(c1)CCN2,129 to 133 °C
9,CC(C)c1ccc(NC(=O)Oc2ccc3c(c2)CCN3Cc2ccc3ccccc3c2)cc1,136 to 140 °C
10,COc1ccc(NC(=O)Oc2ccc3c(c2)CCN3)cc1,220 to 224 °C
11,O=C(Nc1ccc([N+](=O)[O-])cc1)Oc1ccc2c(c1)CCN2Cc1ccccc1,225 to 229 °C
12,CC(C)c1ccc(NC(=O)Oc2ccc3c(c2)CCN3Cc2cccc3ncccc23)cc1,195 to 199 °C
13,CC(C)c1ccc(NC(=O)Oc2ccc3c(c2)CCN3Cc2ccc3cc[nH]c3c2)cc1,194 to 196 °C
14,O=C(Nc1ccccc1)Oc1ccc2c(c1)CCN2Cc1ccccc1,105 to 112 °C
